Converted amounts (≈) assume the structure as drawn. The source made the active and inactive calls. The rule behind the calls is not given here.
Assays:
Vero = assay: (§1) Cytotoxicity against Chlorocebus aethiops (African green monkey) Vero cells assessed as cell viability after 3 days by SRB assay; format: cell-based; settings: chlorocebus sabaeus, vero, 72 h
[1] = as §1; format: cell-based; settings: chlorocebus sabaeus, Vero cells
Bacillus subtilis = assay: Antibacterial activity against Bacillus subtilis at 50 ug/well after 24 hr by agar well diffusion method; format: functional, organism-based
Staphylococcus aureus = assay: Antibacterial activity against Staphylococcus aureus at 50 ug/well after 24 hr by agar well diffusion method; format: functional, organism-based

Compound	pCC50 (Vero)	CC50 at 72 h [1]	Activity (Bacillus subtilis)	Activity (Staphylococcus aureus)
CC1=C(C(=O)Nc2ccc(Cl)cc2)C(c2cccc([N+](=O)[O-])c2)C(C(=O)Nc2ccc(Cl)cc2)=C(C)N1	1.315	26 µg/mL (≈ 48.4 µM)	inactive	inactive
CC1=C(C(=O)Nc2ccc(Cl)cc2)C(c2ccccc2)C(C(=O)Nc2ccc(Cl)cc2)=C(C)N1	1.516	15 µg/mL (≈ 30.5 µM)	inactive	inactive
CC1=C(C(=O)Nc2ccc(Cl)cc2)C(/C=C/c2ccccc2)C(C(=O)Nc2ccc(Cl)cc2)=C(C)N1	1.392	21 µg/mL (≈ 40.5 µM)	inactive	inactive
COc1ccc(NC(=O)C2=C(C)NC(=S)NC2c2cccc([N+](=O)[O-])c2)cc1 (stereo not given)	0.697	80 µg/mL (≈ 201 µM)	inactive	inactive
COc1ccc(NC(=O)C2=C(C)NC(=O)NC2c2cccc(Cl)c2)cc1 (stereo not given)	0.164	254 µg/mL (≈ 683 µM)	inactive	inactive
COc1ccc(NC(=O)C2=C(C)N=C(S)NC2c2ccc(O)c(OC)c2)cc1 (stereo not given)	1.698	8 µg/mL (≈ 20 µM)	inactive	inactive
COc1ccc(NC(=O)C2=C(C)NC(=O)NC2c2ccc(O)c(OC)c2)cc1 (stereo not given)	1.68	8 µg/mL (≈ 20.9 µM)	inactive	inactive
COc1ccc(NC(=O)C2=C(C)NC(=O)NC2c2ccc(OC)cc2)cc1 (stereo not given)	0.367	158 µg/mL (≈ 430 µM)	inactive	inactive
COc1ccc(NC(=O)C2=C(C)NC(=S)NC2c2ccccc2O)cc1 (stereo not given)	0.176	246 µg/mL (≈ 666 µM)	inactive	inactive
COc1ccc(NC(=O)C2=C(C)NC(=O)NC2c2ccccc2O)cc1 (stereo not given)	0.343	160 µg/mL (≈ 453 µM)	inactive	inactive
COc1ccc(NC(=O)C2=C(C)NC(=O)NC2c2ccc(N(C)C)cc2)cc1 (stereo not given)	0.207	236 µg/mL (≈ 620 µM)	inactive	inactive
COc1ccc(NC(=O)C2=C(C)NC(=O)NC2/C=C/c2ccccc2)cc1 (stereo not given)	1.383	15 µg/mL (≈ 41.3 µM)	inactive	inactive
COc1cc(C2C(C(=O)Nc3ccc(Cl)cc3)=C(C)NC(C)=C2C(=O)Nc2ccc(Cl)cc2)ccc1O	0.333	250 µg/mL (≈ 464 µM)	inactive	inactive
COc1ccc(NC(=O)C2=C(C)NC(=O)NC2c2cccc([N+](=O)[O-])c2)cc1 (stereo not given)	0.776	64 µg/mL (≈ 167 µM)	inactive	inactive
COc1ccc(NC(=O)C2=C(C)NC(=O)NC2c2ccncc2)cc1 (stereo not given)	1.529	10 µg/mL (≈ 29.6 µM)	inactive	inactive
CC1=C(C(=O)Nc2ccc(Cl)cc2)C(c2ccncc2)C(C(=O)Nc2ccc(Cl)cc2)=C(C)N1	0.8	78 µg/mL (≈ 158 µM)	inactive	inactive
CC1=C(C(=O)Nc2ccc(Cl)cc2)CC(C(=O)Nc2ccc(Cl)cc2)=C(C)N1	1.017	40 µg/mL (≈ 96.1 µM)	inactive	inactive
COc1ccc(C2C(C(=O)Nc3ccc(Cl)cc3)=C(C)NC(C)=C2C(=O)Nc2ccc(Cl)cc2)cc1	1.42	20 µg/mL (≈ 38.3 µM)	inactive	inactive
COc1ccc(NC(=O)C2=C(C)NC(=O)NC2c2ccccc2)cc1 (stereo not given)	0.176	225 µg/mL (≈ 667 µM)	inactive	inactive
COc1ccc(NC(=O)C2=C(C)NC(=O)NC2c2ccco2)cc1 (stereo not given)	0.192	210 µg/mL (≈ 642 µM)	inactive	inactive
CC1=C(C(=O)Nc2ccc(Cl)cc2)C(c2ccc(N(C)C)cc2)C(C(=O)Nc2ccc(Cl)cc2)=C(C)N1	0.538	155 µg/mL (≈ 289 µM)	inactive	inactive
COc1ccc(NC(=O)C2=C(C)NC(=S)NC2c2ccccc2)cc1 (stereo not given)	1.371	15 µg/mL (≈ 42.4 µM)	inactive	inactive
CC1=C(C(=O)Nc2ccc(Cl)cc2)C(c2cccc(Cl)c2)C(C(=O)Nc2ccc(Cl)cc2)=C(C)N1	1.642	12 µg/mL (≈ 22.8 µM)	inactive	inactive
COc1ccc(NC(=O)C2=C(C)NC(=O)NC2)cc1	0.116	200 µg/mL (≈ 765 µM)	inactive	inactive
CC1=C(C(=O)Nc2ccc(Cl)cc2)C(c2ccco2)C(C(=O)Nc2ccc(Cl)cc2)=C(C)N1	1.302	24 µg/mL (≈ 49.8 µM)	inactive	inactive
COc1ccc(NC(=O)C2=C(C)NC(=S)NC2c2ccc(OC)cc2)cc1 (stereo not given)	0.408	150 µg/mL (≈ 391 µM)	inactive	inactive
COc1ccc(NC(=O)C2=C(C)NC(=S)NC2c2ccc(N(C)C)cc2)cc1 (stereo not given)	-0.101	500 µg/mL (≈ 1260 µM)	inactive	inactive
CC1=C(C(=O)Nc2ccc(Cl)cc2)C(c2ccccc2O)C(C(=O)Nc2ccc(Cl)cc2)=C(C)N1	0.913	62 µg/mL (≈ 122 µM)	inactive	inactive
COc1ccc(NC(=O)C2=C(C)NC(=S)NC2c2ccco2)cc1 (stereo not given)	0.173	230 µg/mL (≈ 670 µM)	inactive	inactive
COc1ccc(NC(=O)C2=C(C)NC(=S)NC2c2cccc(Cl)c2)cc1 (stereo not given)	0.157	270 µg/mL (≈ 696 µM)	inactive	inactive

— ChEMBL document CHEMBL3044611, “Synthesis of novel Hantzsch dihydropyridines and Biginelli dihydropyrimidines of biological interest: a 3D-QSAR study on their cytotoxicity” (Med Chem Res, 2010)
